Test systems include CCRF-CEM leukemia; MOLT-4 leukemia; HL-60(TB) leukemia; SN12C renal; M14 melanoma; RPMI-8226 leukemia; OVCAR-4 ovarian; UACC-62 melanoma; SF-268 CNS; MDA-MB-435.
What all share (assay): NCI tumour cell line growth inhibition, 48 h

Molecules are shown by their SMILES.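 Following 48 hours of exposure in 96-well plates, responses at five concentrations were used to interpolate endpoints linearly. GI50 marks 50% less growth. TGI marks complete inhibition of growth.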

For the compound `COC(=O)/C(C#N)=C1\NC(=O)c2ccccc21`, the TGI in the assay on CCRF-CEM leukemia, in the assay with MOLT-4 leukemia, with HL-60(TB) leukemia, with SN12C renal, with M14 melanoma and in the assay on RPMI-8226 leukemia was above 100 µM in each case. In addition, the TGI in the assay with OVCAR-4 ovarian, in the assay with UACC-62 melanoma and in the assay on SF-268 CNS was above 100 µM throughout.

Consider `CC(=O)OC1OC([C@@H]2c3cccc(O)c3C(=O)c3c(O)cc(C)cc32)C(O)C(O)C1O` (stereo not given in full), for which the GI50 with CCRF-CEM leukemia was 0.0494 µM; with MOLT-4 leukemia it was 0.0384 µM; in the assay on MDA-MB-435 it was below 0.0185 µM; in the assay on HL-60(TB) leukemia it was 0.0173 µM; with SN12C renal it was below 0.0179 µM; with M14 melanoma, 0.12 µM. The GI50 with RPMI-8226 leukemia is below 0.0153 µM; in the assay with UACC-62 melanoma, 0.0211 µM; in the assay with SF-268 CNS it was 0.106 µM. In addition, the TGI was 1.63 µM with CCRF-CEM leukemia; 0.662 µM in the assay with MOLT-4 leukemia; 0.691 µM in the assay on MDA-MB-435; 0.0493 µM in the assay on HL-60(TB) leukemia; below 0.0321 µM in the assay on SN12C renal; 1.9 µM with M14 melanoma. In addition, the TGI was below 0.0292 µM with RPMI-8226 leukemia, 1.52 µM in the assay on UACC-62 melanoma and 4.52 µM in the assay with SF-268 CNS.

Turning to `COc1cc2ccnc([C@@H](OC(=O)c3ccccc3)c3ccc(OC)c(OC)c3OC)c2cc1OC`, the TGI in the assay with CCRF-CEM leukemia, with MOLT-4 leukemia, in the assay on HL-60(TB) leukemia, in the assay on SN12C renal, in the assay on M14 melanoma and in the assay on RPMI-8226 leukemia was above 100 µM in each case. The TGI in the assay with OVCAR-4 ovarian, with UACC-62 melanoma and in the assay with SF-268 CNS was above 100 µM throughout.

Consider `CCN(CC)CCSc1c2ccccc2nc2cc(NCC(=O)Nc3ccccc3-c3ccccc3NC(=O)CNc3ccc4c(SCCN(CC)CC)c5ccccc5nc4c3)ccc12`, for which the TGI was 96.9 µM in the assay with CCRF-CEM leukemia; above 76.9 µM in the assay on MOLT-4 leukemia; 49.3 µM in the assay with HL-60(TB) leukemia; above 100 µM in the assay on SN12C renal; above 100 µM in the assay with M14 melanoma; above 100 µM in the assay with RPMI-8226 leukemia. The TGI with OVCAR-4 ovarian, in the assay with UACC-62 melanoma and in the assay with SF-268 CNS was above 100 µM in each case.

For the compound `OCCN(CCO)c1ncnc2c1ncn2Cc1ccc(CCl)cc1`, the GI50 in the assay on CCRF-CEM leukemia was 11 µM; in the assay on MOLT-4 leukemia it was 8.54 µM; in the assay on MDA-MB-435, 14.5 µM; with SN12C renal, 21 µM; with M14 melanoma, 13.8 µM; with RPMI-8226 leukemia it was 17.2 µM. Also, the GI50 was 18.8 µM with OVCAR-4 ovarian, 18 µM in the assay with UACC-62 melanoma and 19.8 µM with SF-268 CNS. Moreover, the TGI in the assay on CCRF-CEM leukemia was 47.1 µM; with MOLT-4 leukemia, 52.4 µM; with MDA-MB-435, 29.3 µM; with SN12C renal, 45.8 µM; with M14 melanoma, 28.4 µM; in the assay on RPMI-8226 leukemia, above 100 µM. The TGI in the assay on OVCAR-4 ovarian was 35.4 µM; in the assay with UACC-62 melanoma, 33.5 µM; with SF-268 CNS it was 49.8 µM.

As for `Cc1ccc(NC(=O)Nc2ccc(-c3cccnc3)cc2N2CCC(CO)CC2)cc1`, the GI50 was 3.57 µM with CCRF-CEM leukemia; 3.02 µM in the assay with MOLT-4 leukemia; 2.64 µM in the assay on HL-60(TB) leukemia; 4.49 µM in the assay on SN12C renal; 2.95 µM in the assay with M14 melanoma; 3.02 µM with RPMI-8226 leukemia. Further, the figures for the GI50 in the assay on OVCAR-4 ovarian, in the assay on UACC-62 melanoma and in the assay on SF-268 CNS were 3.53 µM, 2.3 µM and 3.05 µM, respectively. Moreover, the TGI with CCRF-CEM leukemia is above 100 µM; in the assay on MOLT-4 leukemia, above 100 µM; in the assay with HL-60(TB) leukemia it was 7.38 µM; in the assay with SN12C renal, above 100 µM; in the assay with M14 melanoma, 13.9 µM; in the assay with RPMI-8226 leukemia it was 14.3 µM. The TGI with OVCAR-4 ovarian was above 100 µM; in the assay on UACC-62 melanoma, 6.18 µM; in the assay on SF-268 CNS, above 100 µM.

On to `COC(=O)C1(C(C)C)CCc2c(OC)ccc(OC)c2C1=O` (stereo not given), for which the TGI in the assay with CCRF-CEM leukemia, in the assay on MOLT-4 leukemia, in the assay on HL-60(TB) leukemia, in the assay with SN12C renal, with M14 melanoma and in the assay on RPMI-8226 leukemia was above 100 µM in each case. The TGI in the assay on OVCAR-4 ovarian, in the assay on UACC-62 melanoma and in the assay with SF-268 CNS was above 100 µM in each case.

With `CCOC(=O)C(C)(C)Oc1ccc2c(-c3ccccc3)cc(=O)oc2c1`, the TGI is 63.5 µM in the assay with CCRF-CEM leukemia; 54.6 µM with MOLT-4 leukemia; 63.8 µM with HL-60(TB) leukemia; above 100 µM in the assay on SN12C renal; above 100 µM with M14 melanoma; 49.9 µM in the assay with RPMI-8226 leukemia. Moreover, the TGI in the assay on OVCAR-4 ovarian was above 100 µM; in the assay on UACC-62 melanoma, 38.6 µM; in the assay with SF-268 CNS, above 100 µM.

Consider `CN(C)C(=S)N=C(Nc1ccccc1)Nc1ccccc1`, for which the TGI with CCRF-CEM leukemia, with MOLT-4 leukemia, in the assay on HL-60(TB) leukemia, in the assay with SN12C renal, in the assay on M14 melanoma and in the assay with RPMI-8226 leukemia was above 100 µM each time. Also, the TGI in the assay with OVCAR-4 ovarian, in the assay on UACC-62 melanoma and in the assay on SF-268 CNS was above 100 µM each time.

With `NC1=NCCC1(c1ccccc1)c1ccccn1` (stereo not given), the TGI in the assay with CCRF-CEM leukemia, in the assay on MOLT-4 leukemia, in the assay with HL-60(TB) leukemia, with SN12C renal, with M14 melanoma and in the assay on RPMI-8226 leukemia was above 100 µM each time. Also, the TGI in the assay with OVCAR-4 ovarian, in the assay on UACC-62 melanoma and in the assay with SF-268 CNS was above 100 µM in each case.

As to `Cc1cc(N(CCC#N)CCC#N)ccc1N=Nc1ccc(S(N)(=O)=O)cc1`, the TGI in the assay on CCRF-CEM leukemia, in the assay on MOLT-4 leukemia, in the assay with HL-60(TB) leukemia, in the assay on SN12C renal, in the assay on M14 melanoma and with RPMI-8226 leukemia was above 100 µM each time. In addition, the TGI in the assay with OVCAR-4 ovarian, in the assay on UACC-62 melanoma and in the assay on SF-268 CNS was above 100 µM throughout.

For `NC(=O)NO.O.O.O.O.O.O.O.O.O.O.O.[Ge].[Ge].[Ge].[Ge].[Ge].[O]=[Ge].[O]=[Ge].[O]=[Ge].[O]=[Ge].[O]=[Ge][OH]`, the TGI was above 81.6 µM in the assay on CCRF-CEM leukemia; above 100 µM with MOLT-4 leukemia; 12.6 µM in the assay on HL-60(TB) leukemia; above 100 µM with SN12C renal; above 89 µM in the assay on M14 melanoma; above 100 µM in the assay with RPMI-8226 leukemia. The TGI in the assay with OVCAR-4 ovarian was above 100 µM; with UACC-62 melanoma, 53.5 µM; in the assay on SF-268 CNS, above 100 µM.

The record behind these values is PubChem BioAssay (NCI).
